According to patent US20240197828A1, “Chimeric molecule to treat sepsis and other inflammatory conditions” (THE FEINSTEIN INSTITUTES FOR MEDICAL RESEARCH, priority 2022, published 2024):

What was measured:
RAW264.7 macrophages = assay: Intracellular uptake of FITC-rmCIRP by macrophages (flow cytometry, confocal microscopy); assay type: cell-based, mouse; conditions: RAW264.7, FITC-rmCIRP 1 μg/mL co-incubated with test substance (peptide 10 μg/mL), 1 hour, vs FITC-rmCIRP alone
Description: FIG. 3. Effects of MOP peptides MOP-3, MOP-8 and MOP-14 on eCIRP. Flow cytometry experiment whereby RAW264.7 macrophages were treated for 1 hour according to respective group: PBS (volume-equivalent), FITC-rmCIRP (1 μg/mL), or a mixture of FITC-rmCIRP (1 μg/mL) with each respective peptide (10 μg/mL) after co-incubating for 30 minutes. Intracellular FITC-rmCIRP was analyzed by flow cytometry. Median fluorescence intensity (MFI) reported as percentage relative to PBS-treated RAW264.7 cells. Data from two independent experiments are expressed as mean±SEM and compared by one-way ANOVA and SNK test. *p<0.05 vs. PBS, #p<0.05 vs. eCIRP.
(§1) Computational modeling was used to determine the likely domain of MFG-E8's binding to eCIRP. The known amino acid (AA) sequence of this domain was used to develop and test potential therapeutic peptides. An MFG-E8 derived oligopeptide, MOP3, was developed based on 15 AA from MFG-E8 discoidin 2 domain (mimicking MFG-E8's C-terminal) and tagged with the 3 AA, RGD, (mimicking MFG-E8's binding capacity for the integrin receptor at the N-terminal). Binding of MOP3 to CIRP was quantified using Surface Plasmon Resonance (SPR) analysis. Macrophages (RAW264.7 cells) were treated with FITC-recombinant mouse (rm)-CIRP or co-incubated MOP3 and FITC-rmCIRP with and without a. Br-integrin Ab. After 1 h, cells were fixed and analyzed for intracellular FITC-rmCIRP by flow cytometry. Macrophages were stimulated with rmCIRP or co-incubated mixture of MOP3 and rmCIRP. After 4 h, cell culture supernatants were analyzed for inflammatory cytokine, TNFα.
Mouse macrophage cell line, RAW264.7 cells were obtained from American Type Culture Collection (ATCC) and cultured in DMEM media with 10% FBS, 1% penicillin and streptomycin, and 1% glutamine. Cells were kept in 37° C. incubator under humidified conditions containing 5% CO2.
rmCIRP was labeled using a FITC Conjugation Kit (Abcam, ab188285), and rmMFG-E8 was labeled using Alexa Fluor Conjugation Kit (Abcam, ab269821), both according to respective manufacturer's instructions.
In order to visualize cellular uptake, we initially utilized TRITC-BSA as an internal probe, as BSA is taken up into cells primarily by endocytosis and retained intracellularly after fixation (27, 28). For further visualization of intracellular localization, we utilized LAMP1 primary antibody (as it is distributed among endolysosomal organelles and serves as a marker for lysosomal compartments) (29), and utilized lysotracker in live cell experiments (as it allows for imaging of dynamics of lysosome vesicle movements) (30). RAW264.7 cells were treated in various conditions with rmCIRP, rmMFG-E8, and inhibitory antibody against auß3-integrin (Bioss antibodies, bs-1310R) for 4 hours. Cells were fixed with 4% paraformaldehyde (PFA), washed with 1×PBS, permeabilized using 0.3% Triton x100, and blocked using 5% BSA 100 mM Glycine in PBS prior to primary antibody treatment. After incubation with secondary antibodies, cells were washed and mounted with ProLong Gold antifade reagent (Invitrogen). For live cell imaging, cells remained in treatment conditions and were imaged under CO2. Staining procedures were performed according to the manufacturers' instructions utilizing respective fluorescent dyes and probes. For all imaging, confocal microscopy images were obtained using a Zeiss LSM880 confocal microscope equipped with a 63× objective. Images were quantified and analyzed using Image J, FIJI.(31) Flow cytometry.
To detect changes in internalized eCIRP in the presence of MFG-E8, RAW264.7 cells were seeded in 12-well plates (approximately 3×10^5 cells/well) and were treated with FITC-eCIRP. Treatment groups consisted of FITC-eCIRP, FITC-eCIRP with MFG-E8, FITC-eCIRP with MFG-E8 and αvβ3-integrin antibody (0.5 μg/mL), or FITC-eCIRP with MFG-E8 and IgG isotype (0.5 μg/mL). Similar experiments were conducted with MOP3 instead of MFG-E8 in parallel groups. […]

RAW264.7 cells = assay: eCIRP-induced cytokine release in RAW264.7 cells (ELISA of supernatants); assay type: cell-based, mouse; conditions: RAW264.7, rmCIRP 1 μg/mL, 4 hours, vs rmCIRP alone
Description: FIG. 2. Effects of MOP peptides on TNFα levels. RAW264.7 macrophages were cultured and treated with either volume-equivalent PBS, recombinant murine (rm) CIRP (eCIRP; 1 μg/mL), or rmCIRP with each respective peptide (10 μg/mL). After 4 hours, cell supernatants were assessed for TNFα levels by ELISA. Experiments were performed 3 times, and all data were used for analysis. Data are expressed as mean±SEM and compared by one-way ANOVA and SNK test. *p<0.05 vs. PBS, #p<0.05 vs. eCIRP.
FIG. 4. eCIRP-induced inflammation is attenuated by MOP3. RAW264.7 cells were treated according to respective groups: PBS (volume equivalent), rmCIRP (1 μg/mL), or rmCIRP with MOP3 at increasing doses. After 4 hours, cell supernatants were analyzed for TNFα levels by ELISA. Experiments were performed 3 times, and all data were used for analysis. Data are expressed as mean #SEM and compared by one-way ANOVA and SNK test. *p<0.05 vs. PBS, #p<0.05 vs. eCIRP.
as §1
Mouse macrophage cell line, RAW264.7 cells were obtained from American Type Culture Collection (ATCC) and cultured in DMEM media with 10% FBS, 1% penicillin and streptomycin, and 1% glutamine. Cells were kept in 37° C. incubator under humidified conditions containing 5% CO2. […]
The mouse macrophage cell culture supernatants were analyzed for cytokine levels using ELISA kits (BD Biosciences, CA). […] TNF-α and IL-6 levels were measured in cell supernatants by ELISA in accordance with respective manufacturers' instructions (BD Biosciences, CA). Blood was collected, centrifuged at 4,000 RPM for 10 minutes, and sera was separated and analyzed for cytokine levels using ELISA kits (BD Biosciences, CA). TNF-α and IL-6 levels in the serum were measured by ELISA in accordance with respective manufacturers' instructions.

Substance | intracellular FITC-rmCIRP uptake (flow cytometry) (RAW264.7 macrophages) | TNFα levels in cell supernatants (RAW264.7 cells)
MOP3-modification to “RGT”: modified peptide whereby the Arg-Gly-Asp AAs of MOP3 were edited to Arg-Gly-Thr (RGT) (RGTSSSYKTWNLRAFGWY) [reference compound] | loss of ability to internalize FITC-eCIRP | 
RGDPFMARYVRVLPVSWH (listed as Mus musculus) [MOP14, RGD-tagged segment of murine MFG-E8 discoidin domain 2] | only a single peptide screened, peptide-3, could increase intracellular uptake | capable of attenuating TNFα release
RGDVTGIITQGARDFGHI (listed as Mus musculus) [MOP8, RGD-tagged segment of murine MFG-E8 discoidin domain 2] | only a single peptide screened, peptide-3, could increase intracellular uptake | capable of attenuating TNFα release
